# Data from patent US7888363B2, “Viral polymerase inhibitors” (Boehringer Ingelheim International GmbH, priority 2003, dated 2011).
# Biological target: hepatitis C virus RNA dependant polymerase (NS5B) (Hepatitis C virus genotype 1b, UniProt P26663)
# Experiment: Inhibition of NS5B RNA dependent RNA polymerase activity
# Assay type: biochemical
# Conditions: Table 1; HCV NS5B polymerase
# Protocol: A suitable assay is described in the examples.
# Inhibition of NS5B RNA Dependent RNA Polymerase Activity
# The compounds of the invention were tested for inhibitory activity against the hepatitis C virus RNA dependant polymerase (NS5B), according to protocol described in WO 03/010141
# hepatitis C virus RNA dependant polymerase (NS5B), sequence (P26663 2420-3010): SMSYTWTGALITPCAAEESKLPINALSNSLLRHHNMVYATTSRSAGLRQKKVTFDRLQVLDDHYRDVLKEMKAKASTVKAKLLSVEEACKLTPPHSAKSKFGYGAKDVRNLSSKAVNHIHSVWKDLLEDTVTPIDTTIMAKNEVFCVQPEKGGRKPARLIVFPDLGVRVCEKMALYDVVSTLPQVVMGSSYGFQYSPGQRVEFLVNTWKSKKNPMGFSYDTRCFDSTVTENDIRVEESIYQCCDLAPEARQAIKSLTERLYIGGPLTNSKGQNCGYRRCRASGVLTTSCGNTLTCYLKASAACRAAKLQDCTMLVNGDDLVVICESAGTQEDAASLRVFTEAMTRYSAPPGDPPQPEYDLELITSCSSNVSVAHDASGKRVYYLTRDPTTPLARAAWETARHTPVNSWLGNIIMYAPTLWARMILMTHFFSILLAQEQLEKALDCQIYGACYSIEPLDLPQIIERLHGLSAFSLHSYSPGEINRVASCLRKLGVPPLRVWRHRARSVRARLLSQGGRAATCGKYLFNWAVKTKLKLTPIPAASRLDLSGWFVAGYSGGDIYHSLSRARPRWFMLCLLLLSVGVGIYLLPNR
row,IC50,SMILES
1,200 to 1000 nM,CC1CCN(C(=O)Cn2c(-c3ccoc3)c(C3CCCCC3)c3ccc(C(=O)O)cc32)CC1 [Example 1101]
2,< 200 nM,CN(C)C(=O)CN1CCN(C(=O)Cn2c(-c3ccoc3)c(C3CCCCC3)c3ccc(C(=O)O)cc32)CC1 [Example 1130]
3,200 to 1000 nM,O=C(O)c1ccc2c(C3CCCCC3)c(-c3ccc(Br)cn3)n(CC(=O)N3CCC(C(=O)O)CC3)c2c1 [Example 1135]
4,1000 to 10000 nM,Cc1ccccc1N(C)C(=O)Cn1c(-c2ccoc2)c(C2CCCCC2)c2ccc(C(=O)O)cc21 [Example 1115]
5,< 200 nM,O=C(O)c1ccc2c(C3CCCCC3)c(-c3ccsc3)n(CC(=O)N3CCC(N4CCCC4)CC3)c2c1 [Example 1037]
6,< 200 nM,CC(C)(NC(=O)Cn1c(-c2ccoc2)c(C2CCCCC2)c2ccc(C(=O)O)cc21)C(=O)Nc1ccc(-c2ccc(C(=O)O)o2)cc1 [Example 1053]
7,200 to 1000 nM,CNC(=O)Cn1c(-c2ccoc2)c(C2CCCCC2)c2ccc(C(=O)O)cc21 [Example 1062]
8,< 200 nM,CC1CN(C(=O)Cn2c(-c3ccoc3)c(C3CCCCC3)c3ccc(C(=O)O)cc32)CC(C)O1 (centres unmarked) [Example 1020]
9,200 to 1000 nM,CC(C)(NC(=O)Cn1c(-c2ccccn2)c(C2CCCCC2)c2ccc(C(=O)O)cc21)C(=O)Nc1ccc(/C=C/C(=O)O)cc1 [Example 1083]
10,200 to 1000 nM,O=C(O)c1ccc2c(C3CCCCC3)c(-c3ccoc3)n(CC(=O)N3CCC[C@@H]3C(=O)O)c2c1 [Example 1123]
11,< 200 nM,CN(C(=O)Cn1c(-c2ccoc2)c(C2CCCCC2)c2ccc(C(=O)O)cc21)C1CCCCC1 [Example 1092]
12,< 200 nM,O=C(Cn1c(-c2ccoc2)c(C2CCCCC2)c2ccc(C(=O)O)cc21)NCc1ccc(C(=O)O)cc1 [Example 1075]
13,200 to 1000 nM,O=C(O)c1ccc2c(C3CCCCC3)c(-c3csc4ccccc34)n(CC(=O)N3CCC(N4CCCC4)CC3)c2c1 [Example 1048]
14,< 200 nM,CCCN(C)C(=O)Cn1c(-c2ccoc2)c(C2CCCCC2)c2ccc(C(=O)O)cc21 [Example 1008]
15,200 to 1000 nM,O=C(Cn1c(-c2ccoc2)c(C2CCCCC2)c2ccc(C(=O)O)cc21)NCC1CCCCC1 [Example 1089]
16,1000 to 10000 nM,O=C(O)c1ccc2c(C3CCCCC3)c(-c3ccoc3)n(CC(=O)N3CC[C@@H]4CCCC[C@@H]4C3)c2c1 [Example 1018]
17,< 200 nM,CC(C)N1CCN(C(=O)Cn2c(-c3ccoc3)c(C3CCCCC3)c3ccc(C(=O)O)cc32)CC1 [Example 1125]
18,< 200 nM,CCC(NC(=O)Cn1c(-c2ccoc2)c(C2CCCCC2)c2ccc(C(=O)O)cc21)C(=O)O (centres unmarked) [Example 1119]
19,200 to 1000 nM,O=C(Cn1c(-c2ccc(Br)cn2)c(C2CCCCC2)c2ccc(C(=O)O)cc21)NNC(=O)NC[C@H]1CC[C@H](C(=O)O)CC1 [Example 1141]

# Same assay, conditions: Table 2; HCV NS5B polymerase
row,IC50,SMILES
1,< 200 nM,O=C(NS(=O)(=O)C(Cl)(Cl)Cl)c1ccc2c(C3CCCCC3)c(-c3ccoc3)n(CC(=O)N3CCOCC3)c2c1 [Example 2045]
2,< 200 nM,CC(C)(C)c1ccc(S(=O)(=O)NC(=O)c2ccc3c(C4CCCCC4)c(-c4ccoc4)n(CC(=O)N4CCOCC4)c3c2)cc1 [Example 2025]
3,200 to 1000 nM,CC(C)c1cc(C(C)C)c(S(=O)(=O)NC(=O)c2ccc3c(C4CCCCC4)c(-c4ccoc4)n(CC(=O)N4CCOCC4)c3c2)c(C(C)C)c1 [Example 2043]

# Same assay, conditions: Table 4; class ranges
row,IC50,SMILES
1,1000 to 10000 nM,O=C(NC1(c2csc(Cc3ccccc3)n2)CCC1)c1ccc2c(C3CCCCC3)c(-c3ccoc3)n(CC(=O)N3CCC(N4CCCC4)CC3)c2c1 [Example 4104]
2,< 200 nM,CC(=O)Nc1nc(C2(NC(=O)c3ccc4c(C5CCCCC5)c(-c5ccoc5)n(CC(=O)N5CCC(N6CCCC6)CC5)c4c3)CCC2)cs1 [Example 4102]
3,200 to 1000 nM,CN(C)C(=O)Cn1c(-c2ccoc2)c(C2CCCCC2)c2ccc(C(=O)NCc3ccccn3)cc21 [Example 4053]
4,< 200 nM,Cn1c(C2(NC(=O)c3ccc4c(C5CCCCC5)c(-c5ccoc5)n(CC(N)=O)c4c3)CCC2)nc2ccc(C=CC(=O)O)cc21 [Example 4100]
5,< 200 nM,CN1CCC(NC(=O)c2ccc3c(C4CCCC4)c(-c4ccoc4)n(CC(=O)N4CCOCC4)c3c2)(c2nc3ccc(C=CC(=O)O)cc3[nH]2)C1 (centres unmarked) [Example 4068]
6,< 200 nM,O=C(O)C=Cc1ccc2nc(C3(NC(=O)c4ccc5c(C6CCCCC6)c(-c6ccoc6)n(CC(=O)N6CCOCC6)c5c4)CCC3)[nH]c2c1 [Example 4067]
7,200 to 1000 nM,NC(=O)C1(NC(=O)c2ccc3c(C4CCCCC4)c(-c4ccoc4)n(CC(=O)N4CCOCC4)c3c2)CCCCC1 [Example 4079]
8,200 to 1000 nM,O=C(NC1(C(=O)O)CCCC1)c1ccc2c(C3CCCCC3)c(-c3ccoc3)n(CC(=O)N3CCOCC3)c2c1 [Example 4074]
9,< 200 nM,C[C@@H](NC(=O)c1ccc2c(C3CCCCC3)c(-c3ccoc3)n(CC(=O)N(C)C)c2c1)c1ccccc1 [Example 4058]

# Second part, the compound before the results:
row,SMILES,IC50
1,COc1ccc([C@@H](C)NC(=O)c2ccc3c(C4CCCCC4)c(-c4ccoc4)n(CC(=O)N4CCOCC4)c3c2)cc1 [Example 4051],200 to 1000 nM
2,O=C(NCc1ccccn1)c1ccc2c(C3CCCCC3)c(-c3ccoc3)n(CC(=O)N3CCOCC3)c2c1 [Example 4046],200 to 1000 nM
3,CN1CCN(C(=O)Cn2c(-c3ccoc3)c(C3CCCCC3)c3ccc(C(=O)NC4(CO)CCCC4)cc32)CC1 [Example 4027],200 to 1000 nM
4,CC(CNC(=O)c1ccc2c(C3CCCCC3)c(-c3ccoc3)n(CC(=O)N3CCN(C)CC3)c2c1)c1ccccc1 (centres unmarked) [Example 4024],1000 to 10000 nM
5,CN1CCN(C(=O)Cn2c(-c3ccoc3)c(C3CCCCC3)c3ccc(C(=O)NC(C)(C)Cc4ccccc4)cc32)CC1 [Example 4037],1000 to 10000 nM
6,CN1CCN(C(=O)Cn2c(-c3ccoc3)c(C3CCCCC3)c3ccc(C(=O)NC4CC4c4ccccc4)cc32)CC1 (racemic) [Example 4038],200 to 1000 nM
7,CN1CCN(C(=O)Cn2c(-c3ccoc3)c(C3CCCCC3)c3ccc(C(=O)NCCc4cccnc4)cc32)CC1 [Example 4040],200 to 1000 nM
8,COc1ccc(CNC(=O)c2ccc3c(C4CCCCC4)c(-c4ccoc4)n(CC(=O)N4CCC(N5CCCC5)CC4)c3c2)cc1OC [Example 4004],< 200 nM
9,CN1CCN(C(=O)Cn2c(-c3ccoc3)c(C3CCCCC3)c3ccc(C(=O)NCc4ccncc4)cc32)CC1 [Example 4018],200 to 1000 nM

# Same assay, conditions: Table 5; HCV NS5B polymerase
row,IC50,SMILES
1,1000 to 10000 nM,CC(C(=O)N1CCOCC1)n1c(-c2ccoc2)c(C2CCCCC2)c2ccc(C(=O)O)cc21 (centres unmarked) [Example 5008]

# Same assay, conditions: Table 7; class ranges
row,IC50,SMILES
1,1000 to 10000 nM,NC(=O)C1CCCN(C(=O)c2ccc3c(c2)c(C2CCCCC2)c(-c2ccoc2)n3CC(=O)N2CCC(N3CCCC3)CC2)C1 (centres unmarked) [Example 7017]
2,1000 to 10000 nM,CN(CCc1ccccn1)C(=O)c1ccc2c(c1)c(C1CCCCC1)c(-c1ccoc1)n2CC(=O)N1CCC(N2CCCC2)CC1 [Example 7020]
3,1000 to 10000 nM,O=C(N[C@H]1CC[C@H](O)CC1)c1ccc2c(c1)c(C1CCCCC1)c(-c1ccoc1)n2CC(=O)N1CCC(N2CCCC2)CC1 [Example 7041]
4,1000 to 10000 nM,COC(=O)c1cc2c(cc1O)c(C1CCCCC1)c(-c1ccoc1)n2CC(=O)N1CCC(N2CCCC2)CC1 [Example 7010]
5,1000 to 10000 nM,CC(C)(C)NC(=O)[C@@H]1Cc2ccccc2CN1C(=O)c1ccc2c(c1)c(C1CCCCC1)c(-c1ccoc1)n2CC(=O)N1CCC(N2CCCC2)CC1 [Example 7061]
6,1000 to 10000 nM,CC(NC(=O)c1ccc2c(c1)c(C1CCCCC1)c(-c1ccoc1)n2CC(=O)N1CCC(N2CCCC2)CC1)c1ccccc1 (centres unmarked) [Example 7026]
